# Test results as given in US20240374879A1, “METHODS AND COMPOSITIONS TO REDUCE CELLULAR DEPOSITION, AND HYDROCEPHALUS SHUNT FAILURE” (Wayne State University, priority 2021, published 2024).
# Tested on: Human astrocyte cells
# Test: Multiplex ELISA of cytokine concentrations in astrocyte culture media
# Assay type: cell-based
# Details: for % Change of Cytokine Concentration IL-1α, GIT 27 vs DMSO treated vehicle / % Change of Cytokine Concentration IL-1β, GIT 27 vs DMSO treated vehicle / % Change of Cytokine Concentration IL-6, GIT 27 vs DMSO treated vehicle / % Change of Cytokine Concentration IL-8, GIT 27 vs DMSO treated vehicle / % Change of Cytokine Concentration IL-10, GIT 27 vs DMSO treated vehicle / % Change of Cytokine Concentration TNF-α, GIT 27 vs DMSO treated vehicle: GIT 27 1000 μg/mL
# Method: Media Creation: A media stock solution was created by combining astrocyte media (ScienCell), supplement kit, 10 mL fetal bovine serum (FBS), 5 mL penicillin/streptomycin, and 5 mL astrocyte growth serum (ScienCell), and an additional 10 mL FBS (ScienCell). IL-1β and IL-10 were diluted to a concentration of 50,000 ng/mL and 100,000 ng/mL, respectively, in phosphate buffer solution (PBS, w/v). GIT 27 was dissolved in a dimethyl sulfoxide (DMSO) vehicle (Sigma-Aldrich) to a concentration of 20 mg/mL (w/v).
# Media solutions for the different groups were made directly before each media change. Cytokines IL-1β or IL-10 were added to the media stock solution for a final concentration of 14.67 ng/mL. GIT 27 was added for a concentration of 1000 μg/mL in the media stock solution for our experimental group. […] Our vehicle group contained 50 μL/mL DMSO alone, which is proportional to the amount in the GIT 27 treated group. Concentrations were then made for evaluation of dose and time dependency (FIGS. 6A-6F).
# Cell Culture: Human astrocyte cells were initially grown in T75 flasks with media changes every three days using basic astrocyte media and washed with Hanks Balanced Salt Solution without Calcium and Magnesium (Gibco). Once the flasks came to confluency, the cells were trypsinized using Trypsin-EDTA at 0.25% (Gibco) and seeded at a seeding density of 250,000 cells per well. These samples were broken up into three treatment groups: control, DMSO, and GIT 27 tested as a pre-treatment, simultaneous treatment, and post-treatment (FIGS. 6A-6F). Each group and treatment time were then either exposed to IL-1β or IL-10 separately at concentrations described for media creation.
# ELISA: As previously published, the Bursky Center for Human Immunology & Immunotherapy Programs Immunomonitoring Laboratory at Washington University School of Medicine ran the multiplex assays according to the manufacturer's protocol (Khodadadei et al., bioRxiv 2021.11.04.467357, 2021. https://doi.org/10.1101/2021.11.04.467357). Samples of culture media analyzed were collected on days 1, 5, 7, 9, 12, and 14 of culture following seeding day. Each frozen supernatant media sample was rapidly thawed at 37° C. and centrifuged at 15,000 G for five minutes prior to incubating with the two-multiplex immunoassay for the following inflammatory cytokines: IL-1α, IL-1β, IL-6, TNF-α, IL-8, IL-10 (ThermoFisher Scientific), C3, and C1q (Millipore Sigma). Magnetic beads and assay buffer were added to all the wells of a 96 well-plate. Media samples and standards were then added in duplicate. The wells were thoroughly washed, and the detection antibody was then added followed by a streptavidin phycoerythrin incubation. Beads were resuspended with sheath fluid and 50 beads per region were acquired on a Luminex FLEXMAP3D system. The concentration of each analyte was then calculated by comparing the sample mean fluorescent intensity to the appropriate standard curve. Belysa v.1 software (Millipore Sigma) was used to generate a 5-parameter logistical curve fit algorithm. Protein concentration is reported as pg/mL for each analyte.
# Statistical Analysis: Three conditions were tested in this experiment, treatment group, treatment time, and IL B or IL10 exposure, with a total of 16 different samples tested with an n=five of replicates. The three treatment groups tested were a control, vehicle control (DMSO), and GIT 27 (G27). Each treatment group was tested as a pre-treatment (denoted Pre-), dose simultaneous to treatment (denoted Sim-), and post-treatment (denoted Post-) as time points with respect to shunt insertion represented by exposure to either IL-1β (IL1B) or IL-10 (IL10). Utilizing the abbreviations described here we combined these to allow for an easier understand of the results presented. An example of this can be control Pre-IL1B, DMSO Pre-IL1B, and G27 Pre-IL1B which represents the three treatment groups when used as a pre-treatment to IL-1β exposure.
# [1] = G27 Sim-IL1B compared to G27 Post-IL1B
# [2] = G27 Sim-IL1B compared to G27 Pre-IL1B
# [3] = G27 Sim-IL10 compared to both G27 Pre-IL10 and G27 Post-IL10
# [4] = Post-IL10, vs control Post-IL10
# [5] = Post-Treatment (C), exposed to IL-1β
# [6] = Post-Treatment (C), exposed to IL-10
# [7] = Pre-IL1B, vs DMSO Pre-IL1B (not vs control)
# [8] = Pre-Treatment (A), exposed to IL-1β
# [9] = Pre-Treatment (A), exposed to IL-10
# [10] = Simultaneous Treatment (B), exposed to IL-1β
# [11] = Simultaneous Treatment (B), exposed to IL-10
compound,measurement,setting,value
"O=C(O)CC1CC(c2ccccc2)=NO1 (centres unmarked) [GIT 27, 4,5-Dihydro-3-phenyl-5-isoxazoleacetic acid]",IL-10 concentration by treatment time,G27 Post-IL10 compared to G27 Sim-IL10,significantly lower
same,TNF-α concentration by treatment time,G27 Pre-IL10 compared to G27 Sim-IL10 and G27 Post-IL10,significantly higher
same,IL-6 concentration by treatment time,[1],significantly lower
same,TNF-α concentration by treatment time,[1],significantly lower
same,IL-10 concentration by treatment time,[2],lower
same,TNF-α concentration by treatment time,[2],lower
same,IL-1α concentration by treatment time,[3],significantly higher
same,IL-1β concentration by treatment time,[3],significantly higher
same,IL-1α concentration compared to both control and DMSO,Post-IL1B,significantly lower
same,IL-10 concentration compared to both control and DMSO,Post-IL1B,significantly lower
same,IL-6 concentration compared to DMSO,"Post-IL1B, vs DMSO Post-IL1B",significantly lower
same,IL-8 concentration compared to DMSO,"Post-IL1B, vs DMSO Post-IL1B",significantly lower
same,TNF-α concentration compared to DMSO,"Post-IL1B, vs DMSO Post-IL1B",significantly lower
same,IL-1α concentration compared to control and DMSO,Post-IL10,significantly lower
same,IL-6 concentration compared to control and DMSO,Post-IL10,significantly lower
same,IL-8 concentration compared to control and DMSO,Post-IL10,significantly lower
same,TNF-α concentration compared to DMSO,"Post-IL10, vs DMSO Post-IL10",significantly lower
same,IL-10 concentration compared to control,[4],significantly lower
same,TNF-α concentration compared to control,[4],significantly lower
same,"% Change of Cytokine Concentration IL-1α, GIT 27 vs DMSO treated vehicle",[5],−20.17%
same,"% Change of Cytokine Concentration IL-1β, GIT 27 vs DMSO treated vehicle",[5],−16.52%
same,"% Change of Cytokine Concentration IL-6, GIT 27 vs DMSO treated vehicle",[5],−28.57%
same,"% Change of Cytokine Concentration IL-8, GIT 27 vs DMSO treated vehicle",[5],−57.49%
same,"% Change of Cytokine Concentration IL-10, GIT 27 vs DMSO treated vehicle",[5],−33.02%
same,"% Change of Cytokine Concentration TNF-α, GIT 27 vs DMSO treated vehicle",[5],−33.45%
same,"% Change of Cytokine Concentration IL-1α, GIT 27 vs DMSO treated vehicle",[6],−85.58%
same,"% Change of Cytokine Concentration IL-1β, GIT 27 vs DMSO treated vehicle",[6],0.00%
same,"% Change of Cytokine Concentration IL-6, GIT 27 vs DMSO treated vehicle",[6],−76.82%
same,"% Change of Cytokine Concentration IL-8, GIT 27 vs DMSO treated vehicle",[6],−78.86%
same,"% Change of Cytokine Concentration IL-10, GIT 27 vs DMSO treated vehicle",[6],−71.33%
same,"% Change of Cytokine Concentration TNF-α, GIT 27 vs DMSO treated vehicle",[6],−80.45%
same,"IL-1α concentration, difference between treatment groups",Pre-IL1B,no significant difference
same,"IL-8 concentration, difference between treatment groups",Pre-IL1B,no significant difference
same,"IL-10 concentration, difference between treatment groups",Pre-IL1B,no significant difference
same,"TNF-α concentration, difference between treatment groups",Pre-IL1B,no significant difference
same,IL-1β concentration compared to DMSO,[7],significantly lower
same,IL-6 concentration compared to DMSO,[7],significantly lower
same,"any of the cytokine concentrations, difference between treatment groups",Pre-IL10,no significant difference
same,"% Change of Cytokine Concentration IL-1α, GIT 27 vs DMSO treated vehicle",[8],−30.49%
same,"% Change of Cytokine Concentration IL-1β, GIT 27 vs DMSO treated vehicle",[8],−42.70%
same,"% Change of Cytokine Concentration IL-6, GIT 27 vs DMSO treated vehicle",[8],−76.60%
same,"% Change of Cytokine Concentration IL-8, GIT 27 vs DMSO treated vehicle",[8],−31.56%
same,"% Change of Cytokine Concentration IL-10, GIT 27 vs DMSO treated vehicle",[8],26908.58%
same,"% Change of Cytokine Concentration TNF-α, GIT 27 vs DMSO treated vehicle",[8],−12.41%
same,"% Change of Cytokine Concentration IL-1α, GIT 27 vs DMSO treated vehicle",[9],11.34%
same,"% Change of Cytokine Concentration IL-1β, GIT 27 vs DMSO treated vehicle",[9],0.00%
same,"% Change of Cytokine Concentration IL-6, GIT 27 vs DMSO treated vehicle",[9],21.96%
same,"% Change of Cytokine Concentration IL-8, GIT 27 vs DMSO treated vehicle",[9],−43.65%
same,"% Change of Cytokine Concentration IL-10, GIT 27 vs DMSO treated vehicle",[9],−6.42%
same,"% Change of Cytokine Concentration TNF-α, GIT 27 vs DMSO treated vehicle",[9],−13.92%
same,IL-1α concentration compared to control,"Sim-IL1B, vs control Sim-IL1B",significantly lower
same,IL-1β concentration compared to control,"Sim-IL1B, vs control Sim-IL1B",significantly lower
same,IL-10 concentration compared to control,"Sim-IL1B, vs control Sim-IL1B",significantly lower
same,TNF-α concentration compared to control,"Sim-IL1B, vs control Sim-IL1B",significantly lower
same,IL-1α concentration compared to DMSO and control,Sim-IL10,significantly decrease
same,IL-8 concentration compared to DMSO and control,Sim-IL10,significantly decrease
same,IL-10 concentration compared to both DMSO and control,Sim-IL10,significantly lower
same,TNF-α concentration compared to control,Sim-IL10,significantly lowered
same,"% Change of Cytokine Concentration IL-1α, GIT 27 vs DMSO treated vehicle",[10],−40.83%
same,"% Change of Cytokine Concentration IL-1β, GIT 27 vs DMSO treated vehicle",[10],−8.24%
same,"% Change of Cytokine Concentration IL-6, GIT 27 vs DMSO treated vehicle",[10],31.97%
same,"% Change of Cytokine Concentration IL-8, GIT 27 vs DMSO treated vehicle",[10],−34.82%
same,"% Change of Cytokine Concentration IL-10, GIT 27 vs DMSO treated vehicle",[10],−31.11%
same,"% Change of Cytokine Concentration TNF-α, GIT 27 vs DMSO treated vehicle",[10],−8.65%
same,"% Change of Cytokine Concentration IL-1α, GIT 27 vs DMSO treated vehicle",[11],−66.52%
same,"% Change of Cytokine Concentration IL-1β, GIT 27 vs DMSO treated vehicle",[11],−89.31%
same,"% Change of Cytokine Concentration IL-6, GIT 27 vs DMSO treated vehicle",[11],−28.89%
same,"% Change of Cytokine Concentration IL-8, GIT 27 vs DMSO treated vehicle",[11],−81.04%
same,"% Change of Cytokine Concentration IL-10, GIT 27 vs DMSO treated vehicle",[11],−49.58%
same,"% Change of Cytokine Concentration TNF-α, GIT 27 vs DMSO treated vehicle",[11],−53.95%
same,IFN-γ concentration,any of the treatment groups,no detectable concentration
